In the NIST ThermoML archive (doi:10.1016/j.jct.2005.02.003):

Experiment: molar heat capacity at constant pressure
Conditions: 101.33 kPa

CC(C)COC(C)(C)C [isobutyl tert-butyl ether]
Conditions	molar heat capacity at constant pressure [J/K/mol]
90.5 K, Crystal	96.03
90.83 K, Glass	103.8
91.51 K, Crystal	97.11
91.79 K, Glass	104.5
92.51 K, Crystal	98.28
92.74 K, Glass	105.8
93.5 K, Crystal	99.11
93.68 K, Glass	107.3
94.49 K, Crystal	100.2
94.62 K, Glass	107.9
95 K, Crystal	100.6
95.48 K, Crystal	101.4
95.55 K, Glass	107.9
96.48 K, Crystal	102.4
96.51 K, Glass	109.8
97.47 K, Crystal	103.3
97.47 K, Glass	111.7
98.41 K, Glass	112.7
98.47 K, Crystal	104.1
99.31 K, Glass	114.5
99.46 K, Crystal	105
100 K, Crystal	105.4
100.2 K, Glass	113.8
100.45 K, Crystal	105.8
101.1 K, Glass	115.2
101.44 K, Crystal	106.9
101.97 K, Glass	117.3
102.44 K, Crystal	108.1
102.84 K, Glass	117.8
103.44 K, Crystal	108.7
103.72 K, Glass	119
104.44 K, Crystal	109.5
104.61 K, Glass	120.2
105.43 K, Crystal	110.5
105.51 K, Glass	121.5
106.41 K, Crystal	111.5
106.42 K, Glass	123.1
107.34 K, Glass	124.7
107.39 K, Crystal	112.7
108.29 K, Glass	126.4
108.37 K, Crystal	113.4
109.25 K, Glass	128.9
109.35 K, Crystal	114.2
110 K, Crystal	114.9
110.23 K, Glass	130
110.32 K, Crystal	115.2
111.21 K, Glass	134
111.31 K, Crystal	116
112.18 K, Glass	138.9
112.29 K, Crystal	117
113.14 K, Glass	146.1
113.28 K, Crystal	117.8
114.06 K, Glass	162.4
114.26 K, Crystal	118.6
114.91 K, Glass	193.9
115.24 K, Crystal	119.6
115.82 K, Liquid	198.1
116.22 K, Crystal	120.5
116.8 K, Liquid	199.6
117.2 K, Crystal	121.3
117.8 K, Liquid	200
118.17 K, Crystal	122.1
118.8 K, Liquid	200.4
119.15 K, Crystal	123.1
119.8 K, Liquid	200.7
120 K, Crystal	124
120.12 K, Crystal	124.2
120.79 K, Liquid	201
121.09 K, Crystal	124.8
121.77 K, Liquid	201.5
122.76 K, Liquid	202
123.02 K, Crystal	126.6
123.76 K, Liquid	202.1
123.99 K, Crystal	127.8
124.76 K, Liquid	202.3
124.96 K, Crystal	128.5
125.75 K, Liquid	202.9
125.92 K, Crystal	129.5
126.75 K, Liquid	202.9
126.91 K, Crystal	130.2
127.1 K, Crystal	130.5
127.74 K, Liquid	203.5
127.9 K, Crystal	130.9
128.73 K, Liquid	204.2
128.89 K, Crystal	131.3
129.13 K, Crystal	131.9
129.7 K, Liquid	204.7
130 K, Crystal	132.7
130.13 K, Crystal	132.5
130.64 K, Liquid	204.9
131.57 K, Liquid	205
132.12 K, Crystal	134.9
132.51 K, Liquid	205.5
133.1 K, Crystal	135.4
133.45 K, Liquid	205.9
134.08 K, Crystal	135.9
134.39 K, Liquid	206.2
135.33 K, Liquid	206.4
136.02 K, Crystal	137.6
136.26 K, Liquid	206.9
136.98 K, Crystal	138.6
137.2 K, Liquid	207.9
137.94 K, Crystal	138.9
138.89 K, Crystal	140
139.84 K, Crystal	140.1
140 K, Crystal	140.5
